# Measured values from ChEMBL document CHEMBL3885881, “DrugMatrix”.
# Species: Rattus norvegicus
# Experiment: DrugMatrix - Regimen: Daily Repeat
# Assay type: toxicity, organism-based, Sprague-Dawley
# Parameters: regimen Daily Repeat, gender Male, age 6-8 weeks
# Conditions: in vivo, po, […], route oral GAVAGE; for ABSOLUTE BASOPHIL / ABSOLUTE EOSINOPHIL / ABSOLUTE LYMPHOCYTE / ABSOLUTE MONOCYTE / ABSOLUTE SEGMENTED NEUTROPHIL / BASOPHIL / EOSINOPHIL / ERYTHROCYTE COUNT / HEMATOCRIT / HEMOGLOBIN / LEUKOCYTE COUNT / LYMPHOCYTE / MEAN CORPUSCULAR HEMOGLOBIN / MEAN CORPUSCULAR HEMOGLOBIN CONCENTRATION / MEAN CORPUSCULAR VOLUME / MONOCYTE / NEUTROPHIL / NUCLEATED RED BLOOD CELLS / PLATELET COUNT: tissue Blood; for ALANINE AMINOTRANSFERASE / ALBUMIN / ALKALINE PHOSPHATASE / ASPARTATE AMINOTRANSFERASE / BLOOD UREA NITROGEN / CARBON DIOXIDE / CHLORIDE / CHOLESTEROL / CREATINE PHOSPHOKINASE / CREATININE / GLUCOSE / LACTATE DEHYDROGENASE / LIPASE / PHOSPHORUS / POTASSIUM / SODIUM / TOTAL BILIRUBIN / TOTAL PROTEIN / URIC ACID: tissue Plasma
# [1] = 400 mg/kg, dose level Low, time 7 day
# [2] = 1175 mg/kg, 72 h, dose level High, time 3 day
# [3] = 1175 mg/kg, dose level High, time 7 day
compound,measurement,setting,value
ClC(Cl)(Cl)Cl [CARBON TETRACHLORIDE],ABSOLUTE BASOPHIL,[1],0 CELLS/uL
same,ABSOLUTE EOSINOPHIL,[1],0 CELLS/uL
same,ABSOLUTE LYMPHOCYTE,[1],12903.17 CELLS/uL
same,ABSOLUTE MONOCYTE,[1],339.83 CELLS/uL
same,ABSOLUTE SEGMENTED NEUTROPHIL,[1],990.33 CELLS/uL
same,BASOPHIL,[1],0%
same,EOSINOPHIL,[1],0%
same,ERYTHROCYTE COUNT,[1],6.32 x10E6/uL
same,HEMATOCRIT,[1],37.03%
same,HEMOGLOBIN,[1],14.83 G/DL
same,LEUKOCYTE COUNT,[1],14.23 x10E3/uL
same,LYMPHOCYTE,[1],90.33%
same,MEAN CORPUSCULAR HEMOGLOBIN,[1],23.5 pg
same,MEAN CORPUSCULAR HEMOGLOBIN CONCENTRATION,[1],40.08 G/DL
same,MEAN CORPUSCULAR VOLUME,[1],58.68 fL
same,MONOCYTE,[1],2.17%
same,NEUTROPHIL,[1],7.5%
same,NUCLEATED RED BLOOD CELLS,[1],0 /100WBC
same,PLATELET COUNT,[1],869.5 x10E3/uL
same,ALANINE AMINOTRANSFERASE,[1],295.83 u/L
same,ALBUMIN,[1],4.12 G/DL
same,ALKALINE PHOSPHATASE,[1],598 u/L
same,ASPARTATE AMINOTRANSFERASE,[1],469.33 u/L
same,BLOOD UREA NITROGEN,[1],15.17 mg/dL
same,CARBON DIOXIDE,[1],29 mmol/L
same,CHLORIDE,[1],99.67 MEQ/L
same,CHOLESTEROL,[1],34.17 mg/dL
same,CREATINE PHOSPHOKINASE,[1],258.83 u/L
same,CREATININE,[1],0.27 mg/dL
same,GLUCOSE,[1],129 mg/dL
same,LACTATE DEHYDROGENASE,[1],176.83 u/L
same,LIPASE,[1],10 u/L
same,PHOSPHORUS,[1],9.22 mg/dL
same,POTASSIUM,[1],5.35 MEQ/L
same,SODIUM,[1],142.35 MEQ/L
same,TOTAL BILIRUBIN,[1],0.22 mg/dL
same,TOTAL PROTEIN,[1],5.88 G/DL
same,URIC ACID,[1],0.82 mg/dL
same,ABSOLUTE BASOPHIL,[2],0 CELLS/uL
same,ABSOLUTE EOSINOPHIL,[2],29 CELLS/uL
same,ABSOLUTE LYMPHOCYTE,[2],12136.5 CELLS/uL
same,ABSOLUTE MONOCYTE,[2],331.83 CELLS/uL
same,ABSOLUTE SEGMENTED NEUTROPHIL,[2],869.33 CELLS/uL
same,BASOPHIL,[2],0%
same,EOSINOPHIL,[2],0.33%
same,ERYTHROCYTE COUNT,[2],6.02 x10E6/uL
same,HEMATOCRIT,[2],37.65%
same,HEMOGLOBIN,[2],13.88 G/DL
same,LEUKOCYTE COUNT,[2],13.37 x10E3/uL
same,LYMPHOCYTE,[2],90.67%
same,MEAN CORPUSCULAR HEMOGLOBIN,[2],23.13 pg
same,MEAN CORPUSCULAR HEMOGLOBIN CONCENTRATION,[2],36.9 G/DL
same,MEAN CORPUSCULAR VOLUME,[2],62.75 fL
same,MONOCYTE,[2],2.5%
same,NEUTROPHIL,[2],6.5%
same,NUCLEATED RED BLOOD CELLS,[2],0.17 /100WBC
same,PLATELET COUNT,[2],800.67 x10E3/uL
same,ALANINE AMINOTRANSFERASE,[2],129 u/L
same,ALBUMIN,[2],3.92 G/DL
same,ALKALINE PHOSPHATASE,[2],531.5 u/L
same,ASPARTATE AMINOTRANSFERASE,[2],232.83 u/L
same,BLOOD UREA NITROGEN,[2],19.17 mg/dL
same,CARBON DIOXIDE,[2],31.33 mmol/L
same,CHLORIDE,[2],101.5 MEQ/L
same,CHOLESTEROL,[2],41.67 mg/dL
same,CREATINE PHOSPHOKINASE,[2],258.5 u/L
same,CREATININE,[2],0.28 mg/dL
same,GLUCOSE,[2],144.83 mg/dL
same,LACTATE DEHYDROGENASE,[2],110 u/L
same,LIPASE,[2],10.5 u/L
same,PHOSPHORUS,[2],9.55 mg/dL
same,POTASSIUM,[2],5.46 MEQ/L
same,SODIUM,[2],145.42 MEQ/L
same,TOTAL BILIRUBIN,[2],0.1 mg/dL
same,TOTAL PROTEIN,[2],5.68 G/DL
same,URIC ACID,[2],0.45 mg/dL
same,ABSOLUTE BASOPHIL,[3],0 CELLS/uL
same,ABSOLUTE EOSINOPHIL,[3],0 CELLS/uL
same,ABSOLUTE LYMPHOCYTE,[3],11238.67 CELLS/uL
same,ABSOLUTE MONOCYTE,[3],252 CELLS/uL
same,ABSOLUTE SEGMENTED NEUTROPHIL,[3],1109.33 CELLS/uL
same,BASOPHIL,[3],0%
same,EOSINOPHIL,[3],0%
same,ERYTHROCYTE COUNT,[3],6.55 x10E6/uL
same,HEMATOCRIT,[3],37.82%
same,HEMOGLOBIN,[3],14.68 G/DL
same,LEUKOCYTE COUNT,[3],12.6 x10E3/uL
same,LYMPHOCYTE,[3],89%
same,MEAN CORPUSCULAR HEMOGLOBIN,[3],22.53 pg
same,MEAN CORPUSCULAR HEMOGLOBIN CONCENTRATION,[3],38.87 G/DL
same,MEAN CORPUSCULAR VOLUME,[3],57.97 fL
same,MONOCYTE,[3],2%
same,NEUTROPHIL,[3],9%
same,NUCLEATED RED BLOOD CELLS,[3],0 /100WBC
same,PLATELET COUNT,[3],761 x10E3/uL
same,ALANINE AMINOTRANSFERASE,[3],302 u/L
same,ALBUMIN,[3],3.77 G/DL
same,ALKALINE PHOSPHATASE,[3],779.83 u/L
same,ASPARTATE AMINOTRANSFERASE,[3],589.83 u/L
same,BLOOD UREA NITROGEN,[3],17.67 mg/dL
same,CARBON DIOXIDE,[3],30.5 mmol/L
same,CHLORIDE,[3],98.83 MEQ/L
same,CHOLESTEROL,[3],26.5 mg/dL
same,CREATINE PHOSPHOKINASE,[3],269.67 u/L
same,CREATININE,[3],0.24 mg/dL
same,GLUCOSE,[3],122.83 mg/dL
same,LACTATE DEHYDROGENASE,[3],182.5 u/L
same,LIPASE,[3],9.17 u/L
same,PHOSPHORUS,[3],9.22 mg/dL
same,POTASSIUM,[3],5.74 MEQ/L
same,SODIUM,[3],142.6 MEQ/L
same,TOTAL BILIRUBIN,[3],0.22 mg/dL
same,TOTAL PROTEIN,[3],5.7 G/DL
same,URIC ACID,[3],0.47 mg/dL
